Measured values published in US11622984B2, “Composition comprising aster sphathulifolius maxim extract for preventing, improving, or treating muscular diseases or for improving muscular functions” (NEWTREE CO., LTD., priority 2018, dated 2023).

What was measured:
Format in all cases: in vivo, C57BL/6 mice
atrogin-1 = assay: qRT-PCR mRNA expression in gastrocnemius of muscle atrophy mouse model; settings: 370 mg/kg oral, 14 days, induction group about three times
Protocol: (§1) An animal experiment was conducted to confirm whether an Aster spathulifolius extract improved muscle atrophy in a muscle atrophy mouse model. Five-week-old male C57BL/6 mice were adapted to an animal laboratory environment for one week, and then divided into five groups according to an experimental condition, and immobilization of the legs to induce muscle atrophy and oral administration of samples were performed for two weeks. […] After 2 weeks of leg fixation and oral administration of the sample, the gastrocnemius and the quadriceps of one hind leg were extracted, and the weights thereof were measured, normalized in proportion to the body weight, and then compared and shown in FIG. 1. […]
(§2) To confirm whether the Aster spathulifolius extract improved the mRNA expression levels of muscle atrophy-related factors, muscle ring finger-1 (MuRF-1) and Atrogin-1, in a muscle atrophy mouse model, quantitative real-time PCR (qRT-PCR) was performed. […]

murf-1 = assay: as above; settings: 370 mg/kg oral, 14 days, induction group about 3 times
Protocol: as §1, §2

[1] = test system: muscle atrophy mouse model; assay: Muscle tissue weight in leg-immobilization muscle atrophy mouse model
Protocol: (§3) An animal experiment was conducted to confirm whether an Aster spathulifolius extract improved muscle atrophy in a muscle atrophy mouse model. Five-week-old male C57BL/6 mice were adapted to an animal laboratory environment for one week, and then divided into five groups according to an experimental condition, and immobilization of the legs to induce muscle atrophy and oral administration of samples were performed for two weeks. Specifically, experimental groups were divided into an untreated control group (normal group, Cont), a muscle atrophy induced group (induction group, IM), a positive control group (HMB administered group, HMB 370) induced with muscle atrophy and administered with beta-hydroxy beta-methylbutyrate (HMB) (370 mg/kg), a group (Aster spathulifolius low-dose administered group, AS 100) induced with muscle atrophy and administered with a low dose (100 mg/kg) of Aster spathulifolius extract, and a group (Aster spathulifolius high-dose administered group, AS 200) induced with muscle atrophy and administered with a high dose (200 mg/kg) of Aster spathulifolius extract. Immobilization of the legs was performed by applying a fixing tool manufactured by using a 1.5 ml microfuge tube, clips, and a Velcro tape as shown in References (Disease models & mechanisms, 8(9), 1059-1069, 2015) to one hind leg of the mouse. All samples were dissolved in 0.5% carboxymethylcellulose (CMC) and orally administered once a day for 14 days from a day of application of leg fixation. After 2 weeks of leg fixation and oral administration of the sample, the gastrocnemius and the quadriceps of one hind leg were extracted, and the weights thereof were measured, normalized in proportion to the body weight, and then compared and shown in FIG. 1. As a result, compared to the normal group (Cont), the induction group (IM) induced muscle atrophy, resulting in a weight loss of about 40% in the gastrocnemius and about 33% in the quadriceps in proportion to the body weight. In the HMB-administered group (HMB 370), as the positive control group, the gastrocnemius decreased by about 24% and the quadriceps decreased by about 17%, showing about 16% and 16% of a muscle atrophy protective ability, respectively. On the other hand, in the low-dose group of Aster spathulifolius (AS 100), the gastrocnemius decreased by about 27% and the quadriceps decreased by about 22%. In the high-dose group of Aster spathulifolius (AS 200), the gastrocnemius decreased by about 25% and the quadriceps decreased by about 18%.

[2] = test system: muscle atrophy mouse model; assay: Cross-sectional area of muscle fibers (H&E staining, image J) in muscle atrophy mouse model; settings: 370 mg/kg oral, 14 days
Protocol: as §3
Histological analysis was conducted to confirm whether an Aster spathulifolius extract improved the reduction in cross-sectional area of muscle fibers in a muscle atrophy mouse model. The gastrocnemius and quadriceps tissues extracted in Example 2 above were fixed with 4% paraformaldehyde and then subjected to hematoxylin and eosin staining (H&E staining), and thereafter, the cross-sectional area of the dyed muscle fibers was quantified through image J software, and the results were shown in FIGS. 2 and 3.

p-mTOR = assay: Western blot protein expression in gastrocnemius of muscle atrophy mouse model; settings: 370 mg/kg oral, 14 days
Protocol: as §1, with “weeks. Specifically, experimental groups were divided into an untreated control group (normal group, Cont), a muscle atrophy induced group (induction group, IM), a positive control group (HMB administered group, HMB 370) induced with muscle atrophy and administered with beta-hydroxy beta-methylbutyrate (HMB) (370 mg/kg), a group (Aster spathulifolius low-dose administered group, AS 100) induced with muscle atrophy and administered with a low dose (100 mg/kg) of Aster spathulifolius extract, and a group (Aster spathulifolius high-dose administered group, AS 200) induced with muscle atrophy and administered with a high dose (200 mg/kg) of Aster spathulifolius extract.” for “weeks.”

CC(C)(O)CC(=O)O [HMB, beta-hydroxy beta-methylbutyrate]
atrogin-1 gene expression relative to normal group (atrogin-1): about 1.3 times | murf-1 gene expression relative to normal group (murf-1): about 1.7 times | quadriceps weight decrease in proportion to body weight vs normal group ([1]; 370 mg/kg oral once a day, 14 days leg fixation, induction group about 33%): about 17% | gastrocnemius weight decrease in proportion to body weight vs normal group ([1]; 370 mg/kg oral once a day, 14 days leg fixation, induction group about 40%): about 24% | muscle atrophy protective ability (muscle weight), gastrocnemius ([1]; 370 mg/kg oral, 14 days): about 16% | muscle atrophy protective ability (muscle weight), quadriceps ([1]; 370 mg/kg oral, 14 days): about 16% | protective ability against the cross-sectional area of muscle fibers, gastrocnemius [2]: 17% | protective ability against the cross-sectional area of muscle fibers, quadriceps [2]: 19% | reduction in muscle fiber size (H&E staining) ([2]; both muscle tissues): the reduction in muscle fiber size was alleviated | decrease of cross-sectional area of muscle fiber vs normal group, quadriceps ([2]; induction group about 47%): about 28% | decrease of cross-sectional area of muscle fiber vs normal group, gastrocnemius ([2]; induction group about 50%): about 33% | p-mTOR protein expression (p-mTOR): large increase
